Like-named read-outs stand apart in the source and are kept apart here.
Test system: canola
Settings: for Average Relative Yield: relative to PROSPER EVERGOL

`O=C1C=C(N(Cc2ccc(Cl)nc2)CC(F)F)CO1` [Flupyradifurone, flupyradifurone] was tested, and the “Average Relative Yield” value (Flupyradifurone 5 g per kg seed, alone or + QST713 1 × 10^6 CFU per seed) was 102.0%, the “Average Relative Yield” value (Flupyradifurone 10 g per kg seed) was 100.5% and the “Average Relative Stand Density” value (in vivo) was 83.2%. The “Average Vigor Rating” value (in vivo) was 4.2, the “Relative Delay in Emergence” value (in vivo) was 3.5 days and the “average relative stand density” value (in vivo) was “decreased”. The “delay in emergence” value (in vivo) was “significant delay in emergence”.

From patent EP4007494B1, “METHOD OF IMPROVING COLD STRESS TOLERANCE AND CROP SAFETY” (Bayer CropScience LLC, priority 2019, dated 2021)
